Values of other authors, collected in patent US20140194454A1, “COMBINATIONS OF TROSPIUM AND SALIVARY STIMULANTS FOR THE TREATMENT OF OVERACTIVE BLADDER” (TheraVida, Inc., priority 2011, published 2014).

Settings: 5 mg of pilocarpine

## CC[C@@H]1C(=O)OC[C@@H]1Cc1cncn1C [pilocarpine]
  time of maximum saliva output after administration: about 30 minutes
